Values joined by “and” are separate entries in the source; they are usually repeats but may differ in a detail not shown here. Identical values can stand only once.
Molecular target: Apoptosis regulator Bcl-2 (Homo sapiens, UniProt P10415)
Test: Bcl-2 TR-FRET Assay
Experimental: Compounds disclosed herein were tested for blocking of Bcl-2 protein with its ligand in an assay based on Time-Resolved Fluorescence Resonance Energy Transfer (TR-FRET) methodology. Recombinant human 0.05 nM Bcl-2 protein was pre-incubated with a serial dilution of compounds disclosed herein (top final concentration is 1 uM or 0.1 uM or 0.02 uM or 0.01 uM, 10 points) at room temperature for 0.5 hour in an assay buffer containing 20 mM potassium phosphate buffer, pH 7.5, 50 mM NaCl. 1 mM EDTA, 0.05% Tween-20, 0.01% BSA. Then the FITC labeled Bak peptide Ac-GQVGRQLAIIGDK(FITC)INR-amide (0.5 nM) and MAb Anti 6His Tb cryptate Gold were added to plate and further incubated at room temperature for 1 hour. The TR-FRET signals (337 nm-520 nm-490 nm) were read on BMG PHERAstar FSX instrument. The inhibition percentage of Bcl-2 interaction with its ligand in presence of increasing concentrations of compounds was calculated based on the TR-FRET signals.

Apoptosis regulator Bcl-2, sequence (P10415 whole entry): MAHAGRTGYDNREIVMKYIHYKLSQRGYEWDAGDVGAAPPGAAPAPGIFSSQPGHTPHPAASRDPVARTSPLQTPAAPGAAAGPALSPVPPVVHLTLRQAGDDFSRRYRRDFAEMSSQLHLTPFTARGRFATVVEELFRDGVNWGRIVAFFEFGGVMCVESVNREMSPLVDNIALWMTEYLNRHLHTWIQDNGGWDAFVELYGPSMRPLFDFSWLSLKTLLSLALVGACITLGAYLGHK

`CC(C)c1ccccc1C1CN(CC(C)(C)C)CCN1C1CC2(CCN(c3ccc(C(=O)NS(=O)(=O)c4ccc(NC[C@H]5CC[C@](C)(O)CC5)c([N+](=O)[O-])c4)c(Oc4cnc5[nH]ccc5c4)c3)CC2)C1` (some centres undefined) [US20240376097, Example 12] showed an IC50 of 0.73 nM.

`COCCN1CCN(C2CC3(CCN(c4ccc(C(=O)NS(=O)(=O)c5ccc(NC[C@H]6CC[C@](C)(O)CC6)c([N+](=O)[O-])c5)c(Oc5cnc6[nH]ccc6c5)c4)CC3)C2)C(c2ccccc2C(C)C)C1` (some centres undefined) [US20240376097, Example 13] was tested, and the IC50 was 0.011 nM.

In the case of `COc1ccc(CN2CCN(C3CC4(CCN(c5ccc(C(=O)NS(=O)(=O)c6ccc(NC[C@H]7CC[C@](C)(O)CC7)c([N+](=O)[O-])c6)c(Oc6cnc7[nH]ccc7c6)c5)CC4)C3)C(c3ccccc3C(C)C)C2)cc1` (some centres undefined) [US20240376097, Example 19], the IC50 is reported as 0.086 nM.

Work on `COc1cc(CN2CCN(C3CC4(CCN(c5ccc(C(=O)NS(=O)(=O)c6ccc(NC[C@H]7CC[C@](C)(O)CC7)c([N+](=O)[O-])c6)c(Oc6cnc7[nH]ccc7c6)c5)CC4)C3)C(c3ccccc3C(C)C)C2)cc(OC)c1` (some centres undefined) [US20240376097, Example 49] yielded an IC50 of 0.2 nM.

`COc1cc(CN2CCN(C3CC4(CCN(c5ccc(C(=O)NS(=O)(=O)c6ccc(NC[C@H]7CC[C@](C)(O)CC7)c([N+](=O)[O-])c6)c(Oc6cnc7[nH]ccc7c6)c5)CC4)C3)C(c3ccccc3C(C)C)C2)cc(C(F)(F)F)c1OC` (some centres undefined) [US20240376097, Example 179] was tested, and the IC50 was 1.5 nM.

For `COc1cc(CN2CCN(C3CC4(CCN(c5ccc(C(=O)NS(=O)(=O)c6ccc(NC[C@H]7CC[C@](C)(O)CC7)c([N+](=O)[O-])c6)c(Oc6cnc7[nH]cc(F)c7c6)c5)CC4)C3)[C@H](c3ccccc3C(C)C)C2)cc(C)c1OC` [US20240376097, Example 210], the IC50 was 0.33 nM.

With `COc1cc(CN2CCN(C3CC4(CCN(c5ccc(C(=O)NS(=O)(=O)c6ccc(NC[C@H]7CC[C@](C)(O)CC7)c([N+](=O)[O-])c6)c(Oc6cnc7[nH]ccc7c6)c5)CC4)C3)[C@H](c3ccccc3C(C)C)C2)ccc1Cl` [US20240376097, Example 276] the IC50 was 0.48 nM.

`COc1cc(CN2CCN(C3CC4(CCN(c5ccc(C(=O)NS(=O)(=O)c6ccc(NC[C@H]7CC[C@](C)(O)CC7)c([N+](=O)[O-])c6)c(Oc6cnc7[nH]cc(F)c7c6)c5)CC4)C3)[C@H](c3ccccc3C(C)C)C2)ccc1Cl` [US20240376097, Example 278] gave an IC50 of 0.6 nM.

With `CC(C)c1ccccc1[C@@H]1CN(Cc2ccc(OC3CC3)c(OC3CC3)c2)CCN1C1CC2(C1)CN(c1ccc(C(=O)NS(=O)(=O)c3ccc(NC[C@H]4CC[C@](C)(O)CC4)c([N+](=O)[O-])c3)c(Oc3cnc4[nH]cc(F)c4c3)c1)C2` [US20240376097, Example 363] the IC50 was 0.34 nM and 0.4 nM.
